# Values of other authors, collected in publication PMC3201700 (Journal of agricultural and food chemistry, 2011).
# Where two headings read alike, the source gives them in different places.
# Legend:
# [1] = tested on: MRP1 and MRP2; details: SFN compared with ERN
# [2] = rats
Recovery of the dose in the urine after 24 h ([2]; by gavage) [%],Recovery of the dose in the urine after 24 h ([2]; in the diet) [%],Compound,Induction of MRP1 and MRP2 (phase III detoxification) [1]
,,"C[S+]([O-])CCCCN=C=S (stereo not drawn) [SFN, sulforaphane]",substantially more potent than ERN
27.6,23.8,C[S+]([O-])CCCC/C(=N\OS(=O)(=O)O)S[C@@H]1O[C@H](CO)[C@@H](O)[C@H](O)[C@H]1O (stereo partly drawn) [glucoraphanin],
